Measurements taken from patent US20260216238A1, “TETRATHIOMOLYBDIC ACID FOR USE IN TREATING COPPER METABOLISM-ASSOCIATED DISEASES OR DISORDERS (WILSON DISEASE)” (Alexion Pharmaceuticals, Inc., priority 2023, published 2026).
Read-outs that look alike come from different tables or passages of the source.

What was measured:
participants with WD = details: for Daily Net Copper Balance, Change from Baseline, Mean: Table 10; for Decrease from Baseline in Average Daily Net Copper Balance, Mean (SD): Table 13
Protocol: Study 204 is registered with ClinicalTrials.gov, number NCT04573309, and is described in Example 1 of U.S. Provisional Patent Application No. 63/237,120, filed Aug. 25, 2021, and incorporated by reference herein. […] The participants remained on a Cu-controlled diet, and Cu and Mo balance were measured on all intake (i.e., investigational agent, food and fluids) and all output (urine and feces). The Cu and Mo concentration of each sample was determined by inductively coupled plasma mass spectrometry (ICP-MS). Copper and Mo content of all intake and output was calculated based on the volume or weight of intake and output and the concentration of representative samples.
Collection periods for feces and urine varied in duration from 3 to 15 days to support assessment of both Cu and Mo balance before and at steady state for both 15 mg and 30 mg. Equilibration periods on Cu/Mo-controlled diets were a minimum of 48 hours. Copper balance was calculated as the mean daily Cu balance over each of the 4 collection periods. The interpretation of Cu balance was based on the criteria previously established when undertaking Cu balance studies with zinc treatment.
These participants had all intake (food and drink) and output (urine and feces) collected from Day −4 through Day −1 (baseline), from Day 1 through Day 8, and Day 25 through Day 39.

[1] = tested on: patients with Wilson disease (WD); experiment: Study 301: daily mean AUEC of plasma directly measured non-ceruloplasmin-bound copper (dNCC), copper mobilization; assay type: in vivo, human; details: for Mean Daily dNCC AUEC0-48 w, LSM: ANCOVA; for Mean Daily dNCC AUEC0-48 w, LSM / Mean Daily dNCC AUEC0-48 w, Mean: multiple imputation; for Mean Daily dNCC AUEC0-48 w, Mean: Full Analysis Set; for Mean Daily dNCC AUEC0-48 w, Between Group LSM Diff / Mean Daily dNCC AUEC0-48 w, Within Group LSM: lower block of Table 5
From the text: FIG. 1 provides a schematic view of the study design. […] This study is referred throughout as Study 301.
The primary endpoint integrated copper mobilization and sequestration (i.e., copper control) throughout the 48-week Primary Treatment Period by assessment of daily mean area under the effect-time curve (AUEC) of directly measured non-ceruloplasmin-bound copper (dNCC) concentration. […] Measurement of dNCC in plasma is highly sensitive and accurate, requiring no special formulas or assumptions. As proposed, dNCC AUEC0-48 W is an indirect measure of copper mobilization and sequestration.
This assessment is also applicable to SoC treatments. In addition, plasma Cp, CpC, plasma total copper, and LBC were measured with AUEC calculated for plasma total copper and LBC.
The AUEC for dNCC concentration was calculated using the trapezoidal rule, and then divided by number of days to yield a mean daily AUEC plasma dNCC concentration from baseline to Week 48 (expressed as μmol/L and described as AUEC0-48 W).
Tests were performed at a significance level of 0.05 (2-sided).

[2] = human, in vivo
From the text: Pharmacokinetics: Blood samples for PK analysis were collected to measure plasma total molybdenum and plasma ultrafiltrate (PUF) molybdenum.

[3] = Days 1-8 (Accumulation 15 mg/day)
[4] = Days 25-28 (Steady State 15 mg/day)
[5] = Days 31-35 (Accumulation 30 mg/day)
[6] = Days 36-39 (Steady State 30 mg/day)

With bis-choline tetrathiomolybdate [TTM] the “Daily Net Copper Balance, Change from Baseline, Median” value (participants with WD; [3]) was -0.4291 mg, the “Daily Net Copper Balance, Value, Median” value (participants with WD; [3]) was 0.6678 mg and the “Increase from Baseline in Average Daily Fecal Copper Excretion, Mean” value (participants with WD; [3]) was 0.3278 mg. The “Increase from Baseline in Average Daily Urine Copper Excretion, Mean” value (participants with WD; [3]) was -0.0108 mg, the “Daily Net Copper Balance, Value, Mean” value (participants with WD; Days 1-8 (Accumulation 15 mg/day), N=3) was 0.7654 mg and the “Daily Net Copper Balance, Change from Baseline, Mean” value (participants with WD; [3]) was -0.4848 mg. For the same substance, the “Decrease from Baseline in Average Daily Net Copper Balance, Mean (SD)” value (shortened to “Decrease from Baseline … (SD)”) (participants with WD; [3]) was −0.4848(0.119) mg, the “Decrease from Baseline … (SD)” value (participants with WD; Days 1-39) was −0.448 (0.1469) mg and the “Daily Net Copper Balance, Change from Baseline, Median” value (participants with WD; [4]) was -0.1459 mg. For the same substance, the “Daily Net Copper Balance, Value, Mean” value (participants with WD; [4]) was 0.7638 mg, the “Daily Net Copper Balance, Value, Median” value (participants with WD; [4]) was 1.1434 mg and the “Increase from Baseline in Average Daily Fecal Copper Excretion, Mean” value (participants with WD; [4]) was 0.4931 mg. For the same substance, the “Increase from Baseline in Average Daily Urine Copper Excretion, Mean” value (participants with WD; [4]) was 0.1042 mg, the “Daily Net Copper Balance, Change from Baseline, Mean” value (participants with WD; [4]) was -0.4865 mg and the “Decrease from Baseline … (SD)” value (participants with WD; [4]) was −0.6381 (0.7673) mg. For the same substance, the “Daily Net Copper Balance, Change from Baseline, Median” value (participants with WD; [5]) was -0.3707 mg, the “Daily Net Copper Balance, Value, Mean” value (participants with WD; [5]) was 0.8577 mg and the “Daily Net Copper Balance, Value, Median” value (participants with WD; [5]) was 0.8312 mg. The “Increase from Baseline in Average Daily Fecal Copper Excretion, Mean” value (participants with WD; [5]) was 0.3879 mg, the “Increase from Baseline in Average Daily Urine Copper Excretion, Mean” value (participants with WD; [5]) was 0.0744 mg and the “Daily Net Copper Balance, Change from Baseline, Mean” value (participants with WD; [5]) was -0.3925 mg. For the same substance, the “Decrease from Baseline … (SD)” value (participants with WD; [5]) was −0.3925 (0.05781) mg, the “Daily Net Copper Balance, Change from Baseline, Median” value (participants with WD; [6]) was -0.4225 mg and the “Daily Net Copper Balance, Value, Mean” value (participants with WD; [6]) was 0.8582 mg. The “Daily Net Copper Balance, Value, Median” value (participants with WD; [6]) was 0.7986 mg, the “Increase from Baseline in Average Daily Fecal Copper Excretion, Mean” value (participants with WD; [6]) was 0.0899 mg and the “Increase from Baseline in Average Daily Urine Copper Excretion, Mean” value (participants with WD; [6]) was 0.1042 mg. For the same substance, the “Daily Net Copper Balance, Change from Baseline, Mean” value (participants with WD; [6]) was -0.3921 mg, the “Decrease from Baseline … (SD)” value (participants with WD; [6]) was −0.2765 (0.3138) mg and the “Mean Daily dNCC AUEC0-48 w, LSM Diff (TTM-SoC)” value ([1]; Cohort 1) was 1.64 µmol/L. For the same substance, the “Mean Daily dNCC AUEC0-48 w, LSM” value ([1]; Cohort 1) was 2.50 µmol/L, the “Mean Daily dNCC AUEC0-48 w, Mean” value ([1]; Cohort 1) was 2.68 µmol/L and the “Mean Daily dNCC AUEC0-48 w, Between Group LSM Diff” value ([1]; Cohort 1) was 1.72 µmol/L. For the same substance, the “Mean Daily dNCC AUEC0-48 w, Within Group LSM” value ([1]; Cohort 1) was 2.59 µmol/L, the “Mean Daily dNCC AUEC0-48 w, LSM Diff (TTM-SoC)” value ([1]; Cohort 2) was 3.79 µmol/L and the “Mean Daily dNCC AUEC0-48 w, LSM” value ([1]; Cohort 2) was 4.76 µmol/L. The “Mean Daily dNCC AUEC0-48 w, Mean” value ([1]; Cohort 2) was 4.58 µmol/L, the “Mean Daily dNCC AUEC0-48 w, Between Group LSM Diff” value ([1]; Cohort 2) was 3.68 µmol/L and the “Mean Daily dNCC AUEC0-48 w, Within Group LSM” value ([1]; Cohort 2) was 4.64 µmol/L. For the same substance, the “Mean Daily dNCC AUEC0-48 w, LSM Diff (TTM-SoC)” value ([1]; Overall) was 2.18 µmol/L, the “Mean Daily dNCC AUEC0-48 w, LSM” value ([1]; Overall) was 3.18 µmol/L and the “Mean Daily dNCC AUEC0-48 w, Mean” value ([1]; Overall) was 3.12 µmol/L. The “Mean Daily dNCC AUEC0-48 w, Between Group LSM Diff” value ([1]; Overall) was 2.12 µmol/L, the “Mean Daily dNCC AUEC0-48 w, Within Group LSM” value ([1]; Overall) was 3.06 µmol/L and the “dNCC area under the effect curve, LSM difference (SE) TTM versus SoC” value ([1]; W0-W48, cohort 1 incomplete response or intolerant to prior SoC, p<0.0001) was 1.64 (0.297). The “Daily Mean AUC(0-48 weeks) PUF Mo, Mean” value [2] was 0.1 mmol/L.
